Laboratory results: patent publication US10245264B2, “Substituted imidazo[1,2-a]pyrazines as soluble guanylate cyclase activators” (Merck Sharp & Dohme Corp., priority 2015, dated 2019)

Experiments:
[1] = tested on: systolic blood pressure in spontaneously hypertensive rats; assay: Acute efficacy in spontaneously hypertensive rats (SHR), telemetry blood pressure; format: in vivo, rat
Source text: Acute Efficacy in Spontaneously Hypertensive Rats (SHR)
Spontaneously hypertensive rats (SHR, male, Charles River) were implanted with DSI TA11 PA-C40 telemetry device (Data Sciences, Inc., St. Paul, Minn.) under isoflurane or ketamine/metomidine anesthesia. The telemetry unit catheter was inserted into the descending aorta via the femoral artery and the telemetry device was implanted subcutaneously in the left flank area. Animals were allowed to recover from surgery for 14 days before the start of any studies. Blood pressure, heart rate, and activity signals from conscious, freely moving rats were recorded continuously for 30 seconds every 10 minutes. On the day prior to administration of compound, a single oral dose of vehicle (10% transcutol/20% Cremophor/70% water) was administered to all animals to establish baseline control data. The blood pressure lowering efficacy of compound (PO) or vehicle was evaluated following a single oral gavage. Data were collected as hourly averages, and changes in blood pressure were calculated by subtracting control baseline data on an hourly basis. Animals were maintained on normal diet with a 12 hour light-dark cycle.
Maximum peak decreases of systolic blood pressure (SBP) in SHR at a particular P.O. dose (mpk milligrams per kilogram) for the following representative compounds are provided below in Table 6.
Category A=SBP in SHRs <20 mmHg; Category B=SBP in SHRs 20-40 mmHg;
Category C=SBP in SHRs >40 mmHg

[2] = target: T1, sGC α1/β1 heterodimer stably expressed in CHO-K1 cells (CHO-K1/sGC) (Homo sapiens, UniProt Q02108+Q02153); assay: Cell-based sGC functional assay (CASA assay), cGMP generation by HTRF; conditions: for Emax: CHO-K1, maximum cGMP production of Compound A set to 100% activation, read-out: % Act. (percent activation relative to Compound A); for EC50: CHO-K1/sGC cells, 1 hr at 37° C., 4P fit, presence or absence of DETA-NO not given, read-out: IP (nM) (inflection point)
T1 construct: expressed in transfected cells
T1 sequence (Q02108 1-690): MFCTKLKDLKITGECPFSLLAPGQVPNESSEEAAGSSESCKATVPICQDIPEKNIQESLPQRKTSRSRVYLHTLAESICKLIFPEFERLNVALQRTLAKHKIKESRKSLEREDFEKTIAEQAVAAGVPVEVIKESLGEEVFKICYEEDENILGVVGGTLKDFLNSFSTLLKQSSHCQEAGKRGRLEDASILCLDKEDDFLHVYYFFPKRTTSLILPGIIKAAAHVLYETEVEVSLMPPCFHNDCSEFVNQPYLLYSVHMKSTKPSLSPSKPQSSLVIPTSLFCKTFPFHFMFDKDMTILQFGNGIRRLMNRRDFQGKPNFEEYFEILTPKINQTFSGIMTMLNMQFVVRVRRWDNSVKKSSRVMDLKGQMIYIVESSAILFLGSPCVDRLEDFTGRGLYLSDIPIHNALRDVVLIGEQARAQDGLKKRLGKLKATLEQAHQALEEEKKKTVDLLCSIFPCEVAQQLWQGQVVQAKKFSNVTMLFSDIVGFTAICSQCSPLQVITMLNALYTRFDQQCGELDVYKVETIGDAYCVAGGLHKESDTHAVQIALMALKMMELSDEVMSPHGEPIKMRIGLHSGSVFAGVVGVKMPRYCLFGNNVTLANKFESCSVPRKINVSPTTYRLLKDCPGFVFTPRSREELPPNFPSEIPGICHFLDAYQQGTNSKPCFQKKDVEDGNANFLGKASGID
T1 sequence (Q02153 1-619): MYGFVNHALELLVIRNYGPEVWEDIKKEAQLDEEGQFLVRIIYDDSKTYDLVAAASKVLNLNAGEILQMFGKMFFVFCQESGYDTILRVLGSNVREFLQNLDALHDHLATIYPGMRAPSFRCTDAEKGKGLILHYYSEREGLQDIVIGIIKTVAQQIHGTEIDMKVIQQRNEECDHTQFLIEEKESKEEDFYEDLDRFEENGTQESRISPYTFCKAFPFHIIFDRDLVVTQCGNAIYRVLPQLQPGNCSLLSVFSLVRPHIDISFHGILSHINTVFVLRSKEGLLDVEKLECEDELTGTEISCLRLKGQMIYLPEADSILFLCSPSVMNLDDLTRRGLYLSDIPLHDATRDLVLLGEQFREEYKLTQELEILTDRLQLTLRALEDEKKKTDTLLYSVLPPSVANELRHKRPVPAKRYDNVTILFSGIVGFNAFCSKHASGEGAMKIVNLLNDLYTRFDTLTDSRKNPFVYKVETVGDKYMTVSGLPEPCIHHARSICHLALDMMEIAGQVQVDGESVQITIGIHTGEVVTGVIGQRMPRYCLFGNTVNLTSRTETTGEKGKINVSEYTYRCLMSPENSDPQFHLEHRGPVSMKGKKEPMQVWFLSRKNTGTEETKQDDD
How it was run: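 CHO-K1/sGC cells (4×10^5/mL) in EBSS with 5 mM MgCl2, 10 mM HEPES, 0.05% BSA and 0.5 mM IBMX, treated 1 hr at 37° C with compounds (2.5% DMSO) with or without 1 μM DETA-NO. cGMP measured by HTRF, expressed as % of a reference heme-dependent activator's maximum; inflection point and fold induction from 4P fit.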

| SMILES | Maximum peak decrease of systolic blood pressure (SBP), Category ([1]; single oral dose 3.0 mpk P.O.) | Emax [2] | EC50 [2] | Maximum peak decrease of systolic blood pressure (SBP), Category ([1]; single oral dose 1.0 mpk P.O.) | Maximum peak decrease of systolic blood pressure (SBP), Category ([1]; single oral dose 0.3 mpk P.O.) |
| --- | --- | --- | --- | --- | --- |
| CC1(c2ccc(F)cc2)C(=O)Nc2nc(-c3cn4ccnc4c(OCC(F)(F)C(F)(F)F)n3)nc(N)c21 (stereo not drawn) [Example 2A, 4-amino-5-(4-fluorophenyl)-5-methyl-2-[8-(2,2,3,3,3-pentafluoropropoxy)imidazo[1,2-a]pyrazin-6-yl]-5,7-dihydro-6H-pyrrolo[2,3-d]pyrimidin-6-one] | B (Category B=SBP in SHRs 20-40 mmHg) | 127% | 317 nM |  |  |
| CC1(c2ccc(F)cc2)C(=O)Nc2nc(-c3cn4ccnc4c(Oc4ccccc4F)n3)nc(N)c21 (stereo not drawn) [Example 4A, 4-amino-2-[8-(2-fluorophenoxy)imidazo[1,2-a]pyrazin-6-yl]-5-(4-fluorophenyl)-5-methyl-5,7-dihydro-6H-pyrrolo[2,3-d] pyrimidin-6-one] |  | 100% | 62 nM | C (Category C=SBP in SHRs >40 mmHg) |  |
| CC1(c2ccccc2)C(=O)Nc2nc(-c3cn4ccnc4c(Oc4ccccc4)n3)nc(N)c21 (stereo not drawn) [Example 10B, 4-amino-5-methyl-2-(8-phenoxy-imidazo[1,2-a]pyrazin-6-yl)-5-phenyl-5,7-dihydro-6H-pyrrolo[2,3-d] pyrimidin-6-one] |  | 127% | 45 nM |  | B (Category B=SBP in SHRs 20-40 mmHg) |
| CC1(c2ccc(Cl)cc2)C(=O)Nc2nc(-c3cn4ccnc4c(Oc4cccnc4)n3)nc(N)c21 (stereo not drawn) [Example 30A, 4-amino-5-(4-chlorophenyl)-5-methyl-2-[8-(pyridin-3-yloxy)imidazo[1,2-a]pyrazin-6-yl]-5,7-dihydro-6H-pyrrolo[2,3-d] pyrimidin-6-one] |  | 168% | 171 nM | B (Category B=SBP in SHRs 20-40 mmHg) |  |
| CC1(c2ccc(Cl)cc2)C(=O)Nc2nc(-c3cn4ccnc4c(OCC4CC(F)(F)C4)n3)nc(N)c21 (stereo not drawn) [Example 32A, 4-amino-5-(4-chlorophenyl)-2-{8-[(3,3-difluoro-cyclobutyl)methoxy]imidazo [1,2-a]pyrazin-6-yl}-5-methyl-5,7-dihydro-6H-pyrrolo[2,3-d] pyrimidin-6-one] |  | 129% | 157 nM | B (Category B=SBP in SHRs 20-40 mmHg) |  |
| CC1(c2ccc(F)cc2)C(=O)Nc2nc(-c3cn4ccnc4c(NCC(F)(F)C(F)(F)F)n3)nc(N)c21 (stereo not drawn) [Example 34A, 4-amino-5-(4-fluorophenyl)-5-methyl-2-{8-[(2,2,3,3,3-pentafluoropropyl)amino]imidazo [1,2-a]pyrazin-6-yl}-5,7-dihydro-6H-pyrrolo[2,3-d] pyrimidin-6-one] | A (Category A=SBP in SHRs <20 mmHg) | 117% | 164 nM |  |  |
| CCCOc1nc(-c2nc(N)c3c(n2)NC(=O)C3(C)c2ccc(F)cc2)cn2ccnc12 (stereo not drawn) [Example 39A, 4-Amino-5-(4-fluorophenyl)-5-methyl-2-(8-propoxyimidazo[1,2-a]pyrazin-6-yl)-5,7-dihydro-6H-pyrrolo[2,3-d]pyrimidin-6-one] |  | 109% | 148 nM | C (Category C=SBP in SHRs >40 mmHg) |  |
| COCCNc1nc(-c2nc(N)c3c(n2)NC(=O)C3(C)c2ccc(Cl)cc2)cn2ccnc12 (stereo not drawn) [Example 40A, 4-Amino-5-(4-chlorophenyl)-2-{8-[(2-methoxyethyl)amino]imidazo[1,2-a]pyrazin-6-yl}-5-methyl-5,7-dihydro-6H-pyrrolo[2,3-d]pyrimidin-6-one] |  | 117% | 85 nM | B (Category B=SBP in SHRs 20-40 mmHg) |  |
| CC1(c2ccc(Cl)cc2)C(=O)Nc2nc(-c3cn4ccnc4c(OCC(F)(F)C(F)(F)F)n3)nc(N)c21 (stereo not drawn) [Example 47A, 4-amino-5-(4-chlorophenyl)-5-methyl-2-[8-(2,2,3,3,3-pentafluoro-propoxy)imidazo [1,2-a]pyrazin-6-yl]-5,7-dihydro-6H-pyrrolo[2,3-d] pyrimidin-6-one] |  | 91% | 157 nM | B (Category B=SBP in SHRs 20-40 mmHg) |  |
| CCCOc1nc(-c2nc(N)c3c(n2)NC(=O)C3(C)c2ccc(Cl)cc2)cn2ccnc12 (stereo not drawn) [Example 49A, 4-amino-5-(4-chlorophenyl)-5-methyl-2-(8-propoxyimidazo [1,2-a]pyrazin-6-yl)-5,7-dihydro-6H-pyrrolo[2,3-d] pyrimidin-6-one] |  | 117% | 30 nM |  | B (Category B=SBP in SHRs 20-40 mmHg) |
| CC1(c2ccc(Cl)cc2)C(=O)Nc2nc(-c3cn4ccnc4c(OCCC4CC4)n3)nc(N)c21 (stereo not drawn) [Example 50A, 4-amino-5-(4-chlorophenyl)-2-[8-(2-cyclo-propylethoxy)imidazo[1,2-a]pyrazin-6-yl]-5-methyl-5,7-dihydro-6H-pyrrolo[2,3-d] pyrimidin-6-one] |  | 106% | 12 nM |  | B (Category B=SBP in SHRs 20-40 mmHg) |
| CC(C)COc1nc(-c2nc(N)c3c(n2)NC(=O)C3(C)c2ccc(F)cc2)cn2ccnc12 (stereo not drawn) [Example 51A, 4-amino-5-(4-fluorophenyl)-5-methyl-2-[8-(2-methyl-propoxy)imidazo [1,2-a]pyrazin-6-yl]-5,7-dihydro-6H-pyrrolo[2,3-d] pyrimidin-6-one] |  | 127% | 27 nM |  | B (Category B=SBP in SHRs 20-40 mmHg) |
| CC1(c2ccc(Cl)cc2)C(=O)Nc2nc(-c3cn4ccnc4c(NCC(F)(F)C(F)(F)F)n3)nc(N)c21 (stereo not drawn) [Example 61A, 4-amino-5-(4-chlorophenyl)-5-methyl-2-{8-[(2,2,3,3,3-pentafluoro-propyl)amino]imidazo[1,2-a]pyrazin-6-yl}-5,7-dihydro-6H-pyrrolo [2,3-d]pyrimidin-6-one] | B (Category B=SBP in SHRs 20-40 mmHg) | 116% | 165 nM |  |  |
| CCCSc1nc(-c2nc(N)c3c(n2)NC(=O)C3(C)c2ccc(F)cc2)cn2ccnc12 (stereo not drawn) [Example 62A, 4-amino-5-(4-fluorophenyl)-5-methyl-2-[8-(propylsulfanyl)imidazo[1,2-a]pyrazin-6-yl]-5,7-dihydro-6H-pyrrolo [2,3-d]pyrimidin-6-one] |  | 99% | 142 nM | B (Category B=SBP in SHRs 20-40 mmHg) |  |
